Source: patent US4567162A, “Biologically active heptapeptides” (Farmitalia Carlo Erba, priority 1983, dated 1986)
Counter-ions that a name gives are not always drawn. Ends that are not written are not given here. Peptide text beside a SMILES is read from it.

Assays:
[1] = system: protein synthesis of liver tissue; test: In vivo-in vitro test: protein synthesis rate of liver tissue (14C amino acid incorporation in microsomal cell juice); parameters: species or system male rats (Wistar); conditions: 4 weeks; for Δ % control rat group treated: versus treated (physiological sodium chloride s.c.) control group; for Δ % control rat group untreated: versus untreated control group; for Protein synthesis rates compared with the two control groups: male rats, daily s.c.
Experimental: De-protecting reactions are carried out according to methods known per se in polypeptide chemistry. Peptides wherein Y represents OR are prepared, for example, starting from the C-terminal amino acid esterified by the appropriate alcohol. Peptides wherein Y represents OH can be prepared, for example, by hydrolysis of peptides wherein Y represents OR. Peptides wherein Y represents NH2, NHR or NR2 can be prepared by ammonolysis of the corresponding esters or starting from a C-terminal amino acid amidated by an appropriate amine. Hydrazido or substituted hydrazido derivatives according to the invention are prepared by condensation of the N-protected peptide or amino acid with a suitably substituted hydrazine, such as benzylcarbazate, t-butylcarbazate, adamantylcarbazate, phenylhydrazine or adamantylhydrazine, or reacting the N-protected peptide or amino acid hydrazide with a suitable alkylating agent, such as an alkyl chloride, or with a suitable acylating agent such as benzylchloroformate, t-butylchloroformate, di-t-butyldicarbonate or adamantylfluoroformate. […] The compounds according to the invention show an interesting growth promoting activity in animals determined both by the in vivo-in vitro test system on protein synthesis of liver tissue (as described by K. Kammerer and A. Dey-Hazra (1980) Vet. Med. Nachr. Nr. 2, 99-112), and by the dose-dependent increase in weight gain and feed efficiency after subcutaneous or oral administration.
The growth tests were carried out for periods of 4 weeks, using groups of 6 male rats (Wistar, Hagemann, Extertal) divided in subgroups of three animals managed in Markolon cages, good shaving as litter.
Water and feed (Altromin 1321 Standard diet containing 19% crude protein): ad libitum.
The peptides of the present invention were administered in solution s.c. daily at doses of 10, 50 and 100 ng/kg, using as diluent normal saline (starting from a stock solution with 100 ng/ml).
Homogenise 3 g liver in 9 ml TKM buffer-saccharose solution, cooled on ice, in a Potter homogeniser at 600 r.p.m. for 2 min.; centrifuge at 4° C. in an ultracentrifuge with 10,000 g for 20 min., decant the supernatant=microsomal cell juice.
After calculation of protein content in the microsomal cell juice by means of the biuret method, the protein concentration was adjusted with TKM buffer to 1 mg/ml. To that, a further dilution with bidistilled water to 0.25 mg protein per ml of the microsomal cell juice followed.
Subsequently portions of 0.15 l ml reaction medium and 0.05 ml (50 mcg) of pyruvate kinase solution, as well as 0.1 ml of ^14 C amino acid mixture (=1 μCi) were added. The volume of the incubation mixture was then 1 ml each.
After a 35 minute incubation at 37° C. in a water bath, protein precipitation was performed by adding 2 ml of trichloracetic acid (10%). The sediment was washed by several additions of trichloroacetic acid and subsequent centrifugation (3600 g/5 min) until the supernatant was free from radioactivity.
The residue was dissolved in 1.0 ml Lumasolve and left overnight at 37° C., until it was clear.
Measuring the preparation was done in a PRIAS liquid scintillation counter PL (1.0 ml+5 ml scintillation liquid).
A detailed method is described in the above cited Kammerer article.

[2] = Growth test in pigs (body weight, feed consumption, feed efficiency); format: in vivo, castrated male pigs (Hybrids)
Experimental: The growth test was carried out for a period of 3 weeks, using groups of 7 castrated male pigs (Hybrids) divided in subgroups and managed in cages with flat decks. The pigs were fed during the whole experimental period with grower feed (Hoveler, normal type without feed additives), 1 kg per day. Water was given ad libitum. The weights were weekly recorded.

[3] = 50 ng/kg daily injection, 3 weeks
[4] = 50 ng/kg, 3 weeks, versus untreated group 1

Compound	Δ % control rat group treated ([1]; 10 ng/kg daily s.c.)	Δ % control rat group untreated ([1]; 10 ng/kg daily s.c.)	Δ % control rat group treated ([1]; 50 ng/kg daily s.c.)	Δ % control rat group untreated ([1]; 50 ng/kg daily s.c.)	Δ % control rat group treated ([1]; 100 ng/kg daily s.c.)	Δ % control rat group untreated ([1]; 100 ng/kg daily s.c.)	Protein synthesis rates compared with the two control groups [1]	Weight after 1 week ([2]; 50 ng/kg daily injection)	Weight after 2 weeks ([2]; 50 ng/kg daily injection)	Weight after 3 weeks ([2]; 50 ng/kg daily injection)	Weight gain [2, 3]	Weight gain in % [2, 3]	Initial weight ([2]; 50 ng/kg daily injection, baseline)	Feed efficiency (kg feed/kg weight gain) ([2]; 50 ng/kg, 3 weeks)	Consumption (feed) ([2]; 50 ng/kg, 3 weeks, feed 1 kg per day)	Feed efficiency Δ % to control group [2, 4]	Weight gain Δ % to control group [2, 4]	Weight gain (in words) ([2]; daily injection)
COC(=O)[C@H](CCSC)NC(=O)[C@H](Cc1c[nH]c2ccccc12)NC(=O)CNC(=O)[C@H](CC(C)C)NC(=O)[C@@H]1CCCN1C(=O)[C@@H]1CCCN1C(=O)[C@@H](N)C(C)C [Ex. 2 (TK7D), HCl.H-Val-Pro-Pro-Leu-Gly-Trp-Met-OMe] (H-VPPLGWM-OMe)	+29.4%	+11.9%	+38.2%	+19.4%	+63.2%	+41.0%	significantly different from the two control groups	–	–	–	–	–	–	–	–	–	–	–
VPPLGWM [Ex. 1 (TK7), H-Val-Pro-Pro-Leu-Gly-Trp-Met-OH.HCl]	+36.1%	+17.7%	+46.0%	+26.2%	+56.5%	+35.3%	significantly different from the two control groups	15.2 kg	17.8 kg	20.7 kg	9.0 kg	76.9%	11.7 kg	2.33 kg feed/kg weight gain	21 kg	-24.6%	+32.4%	clear increase in weight gain
